The results in this text go back to patent US10772903B2, “Targeting fungi in combination with cancer therapy” (Cedars-Sinai Medical Center, priority 2016, dated 2020).

In one assay the test system is E0771 mammary tumors. Description: Orthotopic E0771 mammary tumors, tumor growth after localized irradiation with or without antibiotics/antifungals. In kind it is in vivo, mice. Particulars: for tumor response to RT: agent for one week prior to localized kV irradiation (16 Gy), FIG. 26, 27A.
For a further assay, the system named is CD4+ T cells. Description: Cytokine expression of CD4+ T cells from tumors. Particulars: FIG. 4. In kind it is in vivo, mice.
The test system of a further assay is tumors. Put plainly: Tumor immunohistochemistry: proliferation, cell death, vessels. Format: in vivo, mice. Particulars: FIG. 5. As for the experimental part:
Orthotopic E0771 mammary tumors were grown to a median diameter of 1.0 cm and mice were then started with either antibiotics (Abx) or antifungals (AF) for one week prior to being treated with localized kV irradiation (16 Gy). Total tumor burden/animal assessed every 3 days until endpoint. […] Antibiotics (Abx) were ampicillin, imipenem, cilastin and vancomycin. Fluconazole was the antifungals (AF) used for these experiments. Significance was determined by two-way ANOVA. Kaplan-Meier survival curves are also shown with significance determined by the Log-Rank test (FIG. 26G, FIG. 26H). One of five experiments is shown. Tumors from mice were harvested at one week following RT and stained for bromodeoxyuridine (BrdU) and cleaved caspase 3 (CC3) to assess for proliferation and cell death respectively (FIG. 26I, FIG. 26J). Slides were scanned using the Aperio slide scanner and analyzed using the ScanScope nuclear algorithm included in the Aperio software package. Significance was determined by two-way ANOVA. For all figures significance is shown as *p<0.05, **p<0.01, ***p<0.001.

Another assay relates to intratumoral leukocytes. Particulars: FIG. 3; with RT; fluconazole added to RT and antibiotics.

Description for CD4+ T cells: Tumors were harvested from mice at various time points and analyzed by flow cytometry (FACS) (FIG. 22A), immunohistochemistry (IHC) (FIG. 22B) and qPCR (FIG. 22C). FIG. 22A) For FACS, tumors were enzymatically dissociated with and labeled with fluorescently tagged antibodies and then placed on a flow cytometer. FIG. 22B) For IHC, tumor fragments were fixed in formalin and embedded in paraffin. 5 micron sections were then cut and stained with various antibodies and developed with DAB prior to whole-slide scanning on the Aperio system (Leica Biosystems). FIG. 22C) qPCR was performed on flow sorted immune cells (e.g. CD4+ T cells or macrophages) and then subjected to qPCR with a panel of primers.
Tumors are harvested and evaluated at three endpoints: 1, 2, 4 and 10 days following RT. […]
Protocol for E0771 mammary tumors: Orthotopic E0771 mammary tumors were grown to a median diameter of 1.0 cm and mice were then started with either antibiotics (Abx) or antifungals (AF) for one week prior to being treated with localized kV irradiation (16 Gy). Total tumor burden/animal assessed every 3 days until endpoint. […] Antibiotics (Abx) were ampicillin, imipenem, cilastin and vancomycin. Fluconazole was the antifungals (AF) used for these experiments. Significance was determined by two-way ANOVA. Kaplan-Meier survival curves are also shown with significance determined by the Log-Rank test (FIG. 26G, FIG. 26H). One of five experiments is shown. […] For all figures significance is shown as *p<0.05, **p<0.01, ***p<0.001.
Orthotopic E0771 mammary tumors were grown as described above and then treated with either the antifungal (5-fluorocytosine) one week prior to treatment with localized kV irradiation (16 Gy) (n=8 per group, one of two repeats shown) (FIG. 27A).
For experiments assessing antifungal treatment and the efficacy of radiation therapy (FIGS. 2 and 13), mice bearing syngeneic murine tumors (derived from the E0771 cell line) were treated for one week with fluconazole by putting fluconazole in their drinking water. When tumors reached approximately 1 cm in size they were irradiated with 16 Gray of focal radiation from a Cesium-137 source. The tumors were then followed for tumor growth until they reached approximately 2 cm in size at which time they were harvested for analysis.
For experiments assessing the anti-fungal combination treatment (FIG. 14), in addition to just fluconazole the mice were treated with a cocktail of antifungals (Fluconazole, 5-Fluorocytosine and Amphotericin B) for one week prior to RT.
Protocol for intratumoral leukocytes: Irradiated E0771 mammary tumors were harvested from mice at one week following RT. Tumors were dissociated using the tumor dissociation kit (Miltenyi Biotech) and CD45+ cells were then isolated with CD45+ MacsBeads. The resulting CD45+ cells were then stained with fluorescent antibodies and run on a flow cytometer. Total leukocytes (CD45+ Cells), CD4+ T cells, CD8+ T cells, M1 macrophages (CD11b+Ly6C+) and M1 macrophages (CD11b+F4/80′) were assessed following antibiotic (FIG. 28A-FIG. 28D) and antifungal (FIG. 28E-FIG. 28H) treatment. Antibiotics (Abx) were ampicillin, imipenem, cilastin and vancomycin. Fluconazole was the antifungal (AF) used for these experiments. n=5-7 per group and represent one of five independent experiments.

As to `Nc1nc(=O)[nH]cc1F` [5-fluorocytosine], the “tumor response to RT” value in the assay on E0771 mammary tumors is “similarly enhance the efficacy of RT”.
As for `OC(Cn1cncn1)(Cn1cncn1)c1ccc(F)cc1F` [Fluconazole], in the assay with E0771 mammary tumors (FIG. 12A, RT 16 Gy), the “efficacy of RT” value was “increases the efficacy of RT”. In addition, the “tumor response to RT” value with E0771 mammary tumors was “enhance”. Besides, in the assay with CD4+ T cells, the “IFN-γ expression by CD4+ T cells” value is reported as “more” and the “IL-4 expression by CD4+ T cells” value is listed as “less”. Moreover, in the assay with tumors, the tumor apoptosis result is given as “opposite” and the tumor cell division result is given as “opposite”. Besides, in the assay with intratumoral leukocytes, the “CD4+ T cells” value is “reduces the increase in CD4+ T cell” and the “CD8+ T cells” value is listed as “prevents the reduction of CD8+ T cells”.
